From patent publication US20240366589A1, “NHE3-BINDING COMPOUNDS AND METHODS FOR INHIBITING PHOSPHATE TRANSPORT” (Ardelyx, Inc., priority 2013, published 2024)

What was measured:
[1] = system: absorption of sodium from the intestinal lumen; test: Inhibition of intestinal sodium absorption: urinary sodium (uNa) 16 h after single oral dose in rats; type: in vivo, rat; conditions: oral gavage, 16 h post-dose
How it was run: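 Eight-week-old Sprague-Dawley rats (n=6) given single oral gavage of compound or water vehicle in the late afternoon, then kept in metabolic cages with chow and water ad libitum. Urine collected over 16 h; sodium quantified by ion chromatography and expressed as % of vehicle mean, compared by one-way ANOVA with Dunnett's test.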

[2] = system: absorption of sodium from the intestinal lumen; test: Fecal form score (FFS) 16 h after oral dose in rats; type: in vivo, rat; conditions: oral gavage, 16 h post-dose, scale 1-5
How it was run: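 Eight-week-old Sprague-Dawley rats (n=6) dosed by oral gavage with compound or water vehicle between 4 and 5 PM, then housed in metabolic cages with food and water ad libitum. At 16 h, fecal form scored 1 (normal pellet) to 5 (liquid streams) by two observers; group mean reported.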

[3] = system: phosphorus and calcium levels in the urine of rats; test: Urinary excretion of phosphate and calcium in rats (16 h overnight urine); type: in vivo, rat; conditions: rats, oral gavage, 16 h post-dose
[4] = target: T1, Human NHE3 (Homo sapiens, UniProt P48764); test: Cell-based NHE3 activity under prompt conditions (OK cells, BCECF pH recovery), human NHE3; conditions: prompt conditions
T1 construct: expressed in transfected cells; host or cells: Opossum kidney (OK) cells (ATCC), electroporation
T1 sequence (P48764 26-834): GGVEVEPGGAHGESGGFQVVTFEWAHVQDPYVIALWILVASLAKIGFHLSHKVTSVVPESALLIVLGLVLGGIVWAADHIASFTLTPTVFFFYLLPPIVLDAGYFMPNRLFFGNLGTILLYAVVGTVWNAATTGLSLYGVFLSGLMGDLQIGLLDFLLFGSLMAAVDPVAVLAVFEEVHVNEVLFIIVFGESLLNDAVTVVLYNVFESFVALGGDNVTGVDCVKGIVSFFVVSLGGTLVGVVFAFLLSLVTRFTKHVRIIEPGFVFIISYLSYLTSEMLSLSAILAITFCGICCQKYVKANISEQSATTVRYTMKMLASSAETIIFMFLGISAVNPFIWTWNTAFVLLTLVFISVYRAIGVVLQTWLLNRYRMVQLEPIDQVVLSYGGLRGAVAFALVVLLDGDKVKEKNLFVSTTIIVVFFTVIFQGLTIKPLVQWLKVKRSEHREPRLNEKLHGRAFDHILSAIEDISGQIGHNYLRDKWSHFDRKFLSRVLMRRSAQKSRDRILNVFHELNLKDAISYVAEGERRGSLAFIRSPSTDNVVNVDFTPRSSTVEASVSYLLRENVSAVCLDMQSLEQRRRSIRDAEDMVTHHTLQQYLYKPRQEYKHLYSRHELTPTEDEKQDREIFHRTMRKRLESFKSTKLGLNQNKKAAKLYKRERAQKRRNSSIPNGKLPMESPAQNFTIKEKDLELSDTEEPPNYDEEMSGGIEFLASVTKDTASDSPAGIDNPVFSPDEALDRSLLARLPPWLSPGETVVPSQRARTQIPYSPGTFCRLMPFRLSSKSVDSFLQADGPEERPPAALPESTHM
How it was run: (§1)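 Cells (OK line, electroporated with rat or human NHE3) are washed in NaCl-HEPES pH 7.4, then dye-loaded 30 min at room temperature with 5 μM BCECF-AM in NH4Cl buffer.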

[5] = target: T2, Rat NHE3 (Rattus norvegicus, UniProt P26433); test: Cell-based NHE3 activity under prompt conditions (OK cells, BCECF pH recovery), rat NHE3; conditions: prompt conditions
T2 construct: expressed in transfected cells; host or cells: Opossum kidney (OK) cells (ATCC), electroporation
How it was run: as §1

T2 sequence (P26433 29-831): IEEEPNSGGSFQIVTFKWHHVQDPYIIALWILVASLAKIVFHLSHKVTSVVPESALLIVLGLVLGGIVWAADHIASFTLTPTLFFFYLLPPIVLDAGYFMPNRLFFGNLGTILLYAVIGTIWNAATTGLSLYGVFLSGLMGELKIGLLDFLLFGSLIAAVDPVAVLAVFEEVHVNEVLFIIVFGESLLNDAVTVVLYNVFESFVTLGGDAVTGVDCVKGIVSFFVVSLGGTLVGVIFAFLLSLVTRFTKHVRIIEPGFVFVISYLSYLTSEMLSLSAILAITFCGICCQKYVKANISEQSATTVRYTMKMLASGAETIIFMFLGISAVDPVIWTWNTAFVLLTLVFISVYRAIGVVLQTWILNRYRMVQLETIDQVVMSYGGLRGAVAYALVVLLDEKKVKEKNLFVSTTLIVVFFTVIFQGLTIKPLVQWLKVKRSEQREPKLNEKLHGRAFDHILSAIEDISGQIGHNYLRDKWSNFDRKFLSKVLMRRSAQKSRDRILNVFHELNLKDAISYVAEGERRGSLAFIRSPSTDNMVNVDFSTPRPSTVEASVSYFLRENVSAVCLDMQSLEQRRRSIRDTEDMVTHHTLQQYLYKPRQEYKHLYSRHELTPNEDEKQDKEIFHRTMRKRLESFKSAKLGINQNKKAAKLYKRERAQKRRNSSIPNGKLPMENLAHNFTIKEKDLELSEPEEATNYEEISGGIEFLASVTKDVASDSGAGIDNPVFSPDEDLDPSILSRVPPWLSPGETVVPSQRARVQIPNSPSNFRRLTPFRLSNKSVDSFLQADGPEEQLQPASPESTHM

SMILES	Prompt Human NHE3 pIC50 [4]	Prompt Rat NHE3 pIC50 [5]	IC50 ([4]; read-out: Prompt Human NHE3 pIC50 (converted)) [nM]	IC50 ([5]; read-out: Prompt Rat NHE3 pIC50 (converted)) [nM]	Urine Na % of control ([1]; dose 10 mg/kg) [%]	Fecal Form Score average ([2]; dose 10 mg/kg)	Urine P % of control ([3]; dose 10 mg/kg) [%]	Urine Na % of control ([1]; dose 1 mg/kg) [%]	Urine Na % of control ([1]; dose 3 mg/kg) [%]	Fecal Form Score average ([2]; dose 1 mg/kg)	Fecal Form Score average ([2]; dose 3 mg/kg)	Urine P % of control ([3]; dose 1 mg/kg) [%]	Urine P % of control ([3]; dose 3 mg/kg) [%]
N=C(N)Nc1nc(-c2ccc(OCCOCCOCCOCCN)cc2)c2cc(Cl)ccc2n1 [compound 37]	7.50	7.50	–	–	63	1	101	–	–	–	–	–	–
CN(CC(=O)NCCOCCOCCNC(=O)NCCOCCOCCN1CCN(c2cccc(-c3nc(NC(=N)N)nc4ccc(Cl)cc34)c2)CC1)CC(=O)NCCOCCOCCNC(=O)NCCOCCOCCN1CCN(c2cccc(-c3nc(NC(=N)N)nc4ccc(Cl)cc34)c2)CC1 [compound 33]	7.90	7.40	–	–	98	1	117	–	–	–	–	–	–
CN1Cc2c(Cl)cc(Cl)cc2[C@H](c2cccc(S(=O)(=O)NCCOCCOCCOCCNC(=O)CN(CC(=O)NCCOCCOCCOCCNS(=O)(=O)c3cccc([C@@H]4CN(C)Cc5c(Cl)cc(Cl)cc54)c3)CC(=O)NCCOCCOCCOCCNS(=O)(=O)c3cccc([C@@H]4CN(C)Cc5c(Cl)cc(Cl)cc54)c3)c2)C1 [compound 57]	7.50	7.10	–	–	25	3	75	–	–	–	–	–	–
CN1Cc2c(Cl)cc(Cl)cc2[C@H](c2cccc(S(=O)(=O)NCCOCCOCCNC(=O)NCCN(CCNC(=O)NCCOCCOCCNS(=O)(=O)c3cccc([C@@H]4CN(C)Cc5c(Cl)cc(Cl)cc54)c3)C(=O)NCCCCCCCCCCCCNC(=O)N(CCNC(=O)NCCOCCOCCNS(=O)(=O)c3cccc([C@@H]4CN(C)Cc5c(Cl)cc(Cl)cc54)c3)CCNC(=O)NCCOCCOCCNS(=O)(=O)c3cccc([C@@H]4CN(C)Cc5c(Cl)cc(Cl)cc54)c3)c2)C1 [compound 86]	5.90	5.80	–	–	87	1	89	–	–	–	–	–	–
CCC(=O)NC(CCC(=O)NCCOCCOCCOCCNS(=O)(=O)c1cccc([C@@H]2CN(C)Cc3c(Cl)cc(Cl)cc32)c1)(CCC(=O)NCCOCCOCCOCCNS(=O)(=O)c1cccc([C@@H]2CN(C)Cc3c(Cl)cc(Cl)cc32)c1)CCC(=O)NCCOCCOCCOCCNS(=O)(=O)c1cccc([C@@H]2CN(C)Cc3c(Cl)cc(Cl)cc32)c1 [compound 89]	7.90	7.10	–	–	49	3	117	–	–	–	–	–	–
C/C(=C\c1cc(F)c(Oc2ccc(S(=O)(=O)NCCOCCOCCOCCNC(=O)CN(CCN(CC(=O)O)CC(=O)NCCOCCOCCOCCNS(=O)(=O)c3ccc(Oc4c(F)cc(/C=C(\C)C(=O)N=C(N)N)cc4F)cc3)CC(=O)O)cc2)c(F)c1)C(=O)N=C(N)N [compound 27]	8.40	7.50	–	–	51	1	91	–	–	–	–	–	–
NCCOCCOCCOc1cccc(-c2nc(N=C(N)N)nc3ccc(Cl)cc23)c1 [compound 10]	7.50	6.65	–	–	76	1	80	–	–	–	–	–	–
CN1Cc2c(Cl)cc(Cl)cc2[C@H](c2cccc(S(=O)(=O)NCCOCCOCCNC(=O)NCCC(N)(CCNC(=O)NCCOCCOCCNS(=O)(=O)c3cccc([C@@H]4CN(C)Cc5c(Cl)cc(Cl)cc54)c3)CCNC(=O)NCCOCCOCCNS(=O)(=O)c3cccc([C@@H]4CN(C)Cc5c(Cl)cc(Cl)cc54)c3)c2)C1 [compound 168]	8.13	7.35	–	–	–	–	–	–	56	–	1	–	50
C/C(=C\c1cc(F)c(Oc2ccc(S(=O)(=O)NCCOCCOCCOCCNCc3ccc(CNCCOCCOCCOCCNS(=O)(=O)c4ccc(Oc5c(F)cc(/C=C(\C)C(=O)N=C(N)N)cc5F)cc4)cc3)cc2)c(F)c1)C(=O)N=C(N)N [compound 13]	7.40	6.70	–	–	74	1	56	–	–	–	–	–	–
CN1Cc2c(Cl)cc(Cl)cc2[C@H](c2cccc(S(=O)(=O)NCCOCCOCCNC(=O)CCC(CCC(=O)NCCOCCOCCNS(=O)(=O)c3cccc([C@@H]4CN(C)Cc5c(Cl)cc(Cl)cc54)c3)(CCC(=O)NCCOCCOCCNS(=O)(=O)c3cccc([C@@H]4CN(C)Cc5c(Cl)cc(Cl)cc54)c3)NC(=O)NCCS(=O)(=O)O)c2)C1 [compound 157]	7.77	7.70	–	–	–	–	–	–	26	–	3	–	50

Second part, led by results:

Prompt Human NHE3 pIC50 [4]	Prompt Rat NHE3 pIC50 [5]	IC50 ([4]; read-out: Prompt Human NHE3 pIC50 (converted)) [nM]	IC50 ([5]; read-out: Prompt Rat NHE3 pIC50 (converted)) [nM]	SMILES	Urine Na % of control ([1]; dose 10 mg/kg) [%]	Fecal Form Score average ([2]; dose 10 mg/kg)	Urine P % of control ([3]; dose 10 mg/kg) [%]	Urine Na % of control ([1]; dose 1 mg/kg) [%]	Urine Na % of control ([1]; dose 3 mg/kg) [%]	Fecal Form Score average ([2]; dose 1 mg/kg)	Fecal Form Score average ([2]; dose 3 mg/kg)	Urine P % of control ([3]; dose 1 mg/kg) [%]	Urine P % of control ([3]; dose 3 mg/kg) [%]
7.90	7.40	–	–	O=C(NCCCCNC(=O)NCCOCCOCCOCCNS(=O)(=O)c1ccc(O[C@H]2c3ccccc3C[C@@H]2N2CCCCC2)cc1)NCCOCCOCCOCCNS(=O)(=O)c1ccc(O[C@H]2c3ccccc3C[C@@H]2N2CCCCC2)cc1 (racemic) [compound 51]	79	1	52	–	–	–	–	–	–
–	–	12.6	20	O=C(NCCOCCOCCOCCNS(=O)(=O)c1ccc(OC2c3ccccc3CC2N2CCCCC2)cc1)C(O)C(O)C(=O)NCCOCCOCCOCCNS(=O)(=O)c1ccc(OC2c3ccccc3CC2N2CCCCC2)cc1 (mixture of isomers) [compound 55]	85	1	45	–	–	–	–	–	–
7.80	7.60	–	–	CN1Cc2c(Cl)cc(Cl)cc2[C@H](c2cccc(S(=O)(=O)NCCOCCOCCNC(=O)CCC(CCC(=O)NCCOCCOCCNS(=O)(=O)c3cccc([C@@H]4CN(C)Cc5c(Cl)cc(Cl)cc54)c3)(CCC(=O)NCCOCCOCCNS(=O)(=O)c3cccc([C@@H]4CN(C)Cc5c(Cl)cc(Cl)cc54)c3)NC(=O)COCC(=O)O)c2)C1 [compound 139]	–	–	–	80	27	1	3	63	45
8.30	7.50	–	–	CN1Cc2c(Cl)cc(Cl)cc2[C@H](c2cccc(S(=O)(=O)NCCOCCOCCNC(=O)CCC(=O)NCCOCCOCCNS(=O)(=O)c3ccc(O[C@H]4c5ccccc5C[C@@H]4N4CCCCC4)cc3)c2)C1 [compound 96]	33	1	94	–	–	–	–	–	–
8.70	8.00	–	–	CN1Cc2c(Cl)cc(Cl)cc2[C@H](c2cccc(S(=O)(=O)NCCOCCOCCOCCNC(=O)CN(CCN(CC(=O)O)CC(=O)NCCOCCOCCOCCNS(=O)(=O)c3cccc([C@@H]4CN(C)Cc5c(Cl)cc(Cl)cc54)c3)CC(=O)O)c2)C1 [compound 67]	4	2	67	–	–	–	–	–	–
7.50	8.30	–	–	CN(C)[C@H]1Cc2c(Cl)cc(Cl)cc2[C@@H]1Oc1ccc(S(=O)(=O)NCCOCCOCCNC(=O)C(C)(C)C(=O)NCCOCCOCCNS(=O)(=O)c2ccc(O[C@H]3c4cc(Cl)cc(Cl)c4C[C@@H]3N(C)C)cc2)cc1 [compound 151]	42	2	121	–	78	–	1	–	52
